Measurements published in BindingDB's records for patent US10245267 (Novartis, 2019).

target: Serine/threonine-protein kinase B-raf [V600E] (Homo sapiens, UniProt P15056, V600E); experiment: In Vitro Raf Activity
Sequence (P15056 2-766 V600E limits assumed): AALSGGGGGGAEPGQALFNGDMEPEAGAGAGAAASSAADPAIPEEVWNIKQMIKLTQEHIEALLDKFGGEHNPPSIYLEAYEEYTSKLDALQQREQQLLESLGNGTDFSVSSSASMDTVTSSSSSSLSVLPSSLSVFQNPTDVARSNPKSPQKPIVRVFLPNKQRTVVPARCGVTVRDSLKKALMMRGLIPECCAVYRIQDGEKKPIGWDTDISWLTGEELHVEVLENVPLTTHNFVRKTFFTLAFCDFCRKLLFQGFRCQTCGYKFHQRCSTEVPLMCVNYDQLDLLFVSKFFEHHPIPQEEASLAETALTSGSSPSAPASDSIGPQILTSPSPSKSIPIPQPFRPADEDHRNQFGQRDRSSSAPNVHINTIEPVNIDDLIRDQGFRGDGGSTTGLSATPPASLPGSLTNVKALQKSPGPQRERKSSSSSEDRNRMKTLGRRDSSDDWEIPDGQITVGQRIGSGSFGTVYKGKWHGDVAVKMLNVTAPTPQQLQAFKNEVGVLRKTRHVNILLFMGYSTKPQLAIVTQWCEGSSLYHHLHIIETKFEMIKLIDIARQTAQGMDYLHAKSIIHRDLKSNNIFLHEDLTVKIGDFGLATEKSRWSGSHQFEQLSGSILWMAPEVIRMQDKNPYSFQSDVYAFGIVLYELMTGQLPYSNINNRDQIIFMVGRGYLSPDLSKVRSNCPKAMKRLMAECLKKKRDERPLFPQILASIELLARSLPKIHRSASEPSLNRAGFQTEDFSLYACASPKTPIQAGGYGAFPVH

| IC50 [nM] | Structure (SMILES) |
| --- | --- |
| 6.5 | Cc1ncc(NC(=O)c2ccc(C#N)c(C(F)(F)F)c2)cc1-c1cc(N2CCOCC2)c2nccn2n1 [US10245267, Example 877] |
| 32.6 | Cc1ncc(NC(=O)c2ccnc(C(C)(C)C#N)c2)cc1-c1cc(N2CCOCC2)c2nccn2n1 [US10245267, Example 881] |
| 4.8 | Cc1ncc(NC(=O)c2ccnc(C(C)(C)C#N)c2)cc1-c1cc(N2CCOCC2)ncn1 [US10245267, Example 2] |
| 300 | Cc1ncc(NC(=O)c2ccnc(C(F)(F)F)c2)cc1-c1cnc(OC2CNC2)c(N2CCOCC2)c1 [US10245267, Example 325] |
| 3.7 | Cc1ncc(NC(=O)c2ccnc(C(F)(F)F)c2)cc1-c1cnc(C(C)(C)C#N)c(N2CCOCC2)c1 [US10245267, Example 326] |
| 3.2 | Cc1ncc(NC(=O)c2cccc(C(F)F)c2)cc1-c1cc(N2CCOCC2)c2nccn2n1 [US10245267, Example 880] |
| 3.9 | Cc1ncc(NC(=O)c2ccnc(C(F)(F)F)c2)cc1-c1cnc(CS(C)(=O)=O)c(N2CCOCC2)c1 [US10245267, Example 327] |
| 3.5 | CCOc1nnc(-c2cc(NC(=O)c3ccc(CN(C)CC)c(C(F)(F)F)c3)ccc2C)cc1N1CCOCC1 [US10245267, Example 576] |
